In ChEMBL document CHEMBL4308884, “Development and characterization of a CNS-penetrant benzhydryl hydroxamic acid class IIa histone deacetylase inhibitor” (Bioorg Med Chem Lett, 2019):
Converted amounts (≈) assume the structure as drawn.

Columns and labels:
[1] = Kinetic aqueous solubility of the compound; format: physicochemical; settings: buffer; read-out: Kinetic_solubility
[2] = Apparent passive permeability in MDCK cells at 10 uM after 1 hr by LC-MS/MS analysis; format: ADME, cell-based, Canis lupus familiaris; settings: dog; for Papp: mdck, 1 h, 10 µM

solubility kinetic [1] | Papp at 1 h, 10 µM ([2]; MDCK) | Structure (SMILES) | Papp [2]
141 µM (≈ 55.2 µg/mL) | – | O=C(NO)C(c1ccc(-c2nccc(C(F)(F)F)n2)cc1)c1ccccc1F (stereo unspecified) | Nd(Toxic)
52 µM (≈ 17.5 µg/mL) | – | Cc1cnc(-c2ccc(C(C(=O)NO)c3ccccc3F)cc2)nc1 (stereo unspecified) | Nd(Toxic)
164 µM (≈ 53 µg/mL) | 46.4 ×10⁻⁶ cm/s | O=C(NO)C(c1ccc(-c2cnccn2)cc1)c1ccccc1F (stereo unspecified) | –
